Experiment [1] relates to spiral ganglion neurons (SGNs). Briefly: Delayed treatment (after two weeks of artificial perilymph following neomycin): eABR thresholds. It is filed as in vivo, guinea pigs. Conditions: example 2, delayed treatment, 1 μM; from the fifth week; p<0.01 for DB. The procedure:
The studies of examples 1 to 3 were performed on guinea pigs (250-500 g). All the animals were provided with a platinum-iridium electrode inserted into the cochlear in order to mimic a cochlear implant. The experiments were carried out in accordance with the protocol described by […] and collaborators (Shinohara et al., 2002, Proc. Nati. Acad. Sci. USA, 99, 1657-60). The procedure used was the same as in example 1, apart from the difference that, following the infusion of neomycin sulfate, the pumps were filled with artificial perilymph for two weeks. […] There was no eABR stimulation possible in the animals placed under the same conditions as defined above, but not treated by the products DA or DB.

Experiment [2] deals with spiral ganglion neurons (SGNs). Briefly: Quantification of the density of the SGNs in Rosenthal's canal and histological analysis of cochlea slices. In kind it is in vivo, guinea pigs. How it is done: The studies of examples 1 to 3 were performed on guinea pigs (250-500 g). All the animals were provided with a platinum-iridium electrode inserted into the cochlear in order to mimic a cochlear implant. The experiments were carried out in accordance with the protocol described by Raphael and collaborators (Shinohara et al., 2002, Proc. Nati. Acad. Sci. USA, 99, 1657-60).
After the final measurement of the eABR threshold, the animals were heavily anaesthetised, intraperitoneally, using sodium pentobarbital (25 mg/kg) and infused intracardially with a saline solution (37° C.), which eliminates blood, then with a cold glutaraldehyde solution (2.5% in a 0.1 M phosphate buffer), which fixes the tissues. The temporal bone was removed, then the bulla was opened to reveal the cochlea. A small window was opened in the apex of the cochlea and the membrane of the round window so as to be able to delicately wash the cochlea with the glutaraldehyde solution. The cochlea was then decalcified in a solution of EDTA (0.1 M in the phosphate buffer) so as to make it possible to make cuts. After decalcification, the cochlea was dehydrated and enclosed in “plastic JB-4” (Polyscience Inc, Warrington, Pa.). The cochlea was sectioned into slices 4 μm thick. […] The six sections of Rosenthal's channel of six slices were analysed for each group of animals (Sigma Pro Scan) so as to count the spiral ganglion neurons. […]

On to `CC(C)CCC[C@@H](C)[C@H]1CC[C@H]2[C@@H]3C[C@@H](NCCc4c[nH]cn4)[C@@]4(O)C[C@@H](O)CC[C@]4(C)[C@H]3CC[C@]12C` [DA, 6β-[2-(1H-imidazol-4-yl)-ethylamino]-cholestane-3β,5α-diol], for which the “eABR thresholds, treated group versus control group (artificial perilymph)” value in experiment [1] is listed as “no longer a significant difference”.

Regarding `CC(C)CCC[C@@H](C)[C@H]1CC[C@H]2[C@@H]3C[C@@H](NCCCNCCCCN)[C@@]4(O)C[C@@H](O)CC[C@]4(C)[C@H]3CC[C@]12C` [DB, 6β-[3-(4-aminobutylamino)propylamino]-cholestane-3β,5α-diol], in experiment [1], the “eABR thresholds, treated group versus control group (artificial perilymph)” value was “significant difference”. For the same molecule, in experiment [2] (cochlea slices from the modiolus, axons not distinguishable in animals treated by AP), the “appearance of the axons of the SGNs (histological analysis, FIG. 5)” value was “thin and long”.

B1: GDNF: glia cell-line derived neurotrophic factor (protein, UniProt P39905 78-211, looked up)
Glial cell line-derived …: SPDKQMAVLPRRERNRQAAAANPENSRGKGRRGQRGKNRGCVLTAIHLNVTDLGLGYETKEELIFRYCSGSCDAAETTYDKILKNLSRNRRLVSDKVGQACCRPIAFDDDLSFLDDNLVYHILRKHSAKRCGCI
Consider B1, for which, in experiment [2] (animals of example 1 (early treatment), GDNF 1 μg/ml, P<0.001), the “number of SGNs compared to the control group treated with the artificial perilymph” value is given as “significant difference”.

Source of the values: patent publication US10092577B2, “Sterol derivatives for treating neurosensory hearing loss, and corresponding composition” (AFFICHEM, priority 2014, dated 2018).
